Measurements published in patent US6800618B2, “Chemosensitizing agents against chloroquine resistant plasmodium falciparum and methods of making and using thereof” (The United States of America as represented by the …, priority 2001, dated 2004).

What was measured:
Peruvian PC49 = experiment: FIC index in Peruvian PC49 isolate; type: cell-based, Plasmodium falciparum; design: key: 1.0 = additive; <1.0 synergy; >1.0 antagonism; details: isolate from South America (Peru); same method as for W-2
Experimental: (§1) Fifty percent inhibitory concentrations (IC50s) were determined for each candidate compound alone and for candidate compounds in fixed combinations of their respective IC50s (1:1, 1:3, 3:1). […] See Elion, G. V., et al. (1954) J Biol Chem 208:477-488, which is herein incorporated by reference. The FIC is the actual IC50 of one compound in the presence of a second compound but is expressed as a fraction of its IC50 when used alone. This index is a mathematical representation of the isobologram such that an FIC index of 1.0 represents the line of additive on the isobologram. An FIC index of less than 1.0 represents synergy or potentiation and an FIC index of greater than 1.0 represents antagonism.
(§2) Parasites from different regions responded differently to the compounds of the present invention. The same assay method described above for W-2 was used except that the strains used were isolated from Thailand, Brazil, and Peru, respectively.

RCS = experiment: FIC index in RCS isolate; type: cell-based, Plasmodium falciparum; design: key: 1.0 = additive; <1.0 synergy; >1.0 antagonism; details: isolate from Brazil; same method as for W-2
Experimental: as §1, §2

TM91C235 = experiment: FIC index in TM91C235 isolate; type: cell-based, Plasmodium falciparum; design: key: 1.0 = additive; <1.0 = synergy; >1.0 = antagonism; details: isolate from Southeast Asia (Thailand); same method as for W-2
Experimental: Fifty percent inhibitory concentrations (IC50s) were determined for each candidate compound alone and for candidate compounds in fixed combinations of their respective IC50s (1:1, 1:3, 3:1). […] The FIC is the actual IC50 of one compound in the presence of a second compound but is expressed as a fraction of its IC50 when used alone. This index is a mathematical representation of the isobologram such that an FIC index of 1.0 represents the line of additive on the isobologram. An FIC index of less than 1.0 represents synergy or potentiation and an FIC index of greater than 1.0 represents antagonism.
The same assay method described above for W-2 was used except that the strains used were isolated from Thailand, Brazil, and Peru, respectively.

[1] = tested on: Plasmodium falciparum W2 clone; experiment: FIC index with chloroquine (isobologram analysis) in W2 clone; type: cell-based; design: key: 1.0 = additive; <1.0 = synergy; >1.0 = antagonism; details: 1:1 combination of drug and chloroquine; chloroquine-resistant W2 clone
Experimental: In brief, the assay is based on the incorporation of radiolabeled hypoxanthine by the parasites and inhibition of isotope incorporation is attributed to activity of known or candidate antimalarial drugs. For each assay, proven antimalarials, such as chloroquine, mefloquine, quinine, artemisinin, pyrimethamine and sulfadoxine, were used as controls. The incubation period was 66 hours and the starting parasitemia was 0.2% with a 1% hematocrit. […] Albumax may be used instead of 10% normal heat inactivated human plasma.
(§3) 25 μl of each diluted candidate compound was then transferred to test plates, 200 μl of parasitized erythrocytes (0.2% parasitemia and 1% hematocrit) were added, and incubated at 37° C. in a controlled environment of 5% CO2, 5% O2 and 90% N2. After 42 hours, 25 μl of ^3H-hypoxanthine was added and the plates were incubated for an additional 24 hours. At the end of the 66 hour incubation period, the plates were frozen at −70° C. to lyse the red cells and later thawed and harvested onto glass fiber filter mats by using a 96-well cell harvester. The filter mats were then counted in a scintillation counter and the data was analyzed.
The FIC is the actual IC50 of one compound in the presence of a second compound but is expressed as a fraction of its IC50 when used alone. This index is a mathematical representation of the isobologram such that an FIC index of 1.0 represents the line of additive on the isobologram. An FIC index of less than 1.0 represents synergy or potentiation and an FIC index of greater than 1.0 represents antagonism.
In the isobologram graphs as shown in FIGS. 1-3, the x-axis is fractional inhibitory concentration (FIC) of chloroquine and the y-axis is FIC of chemosensitizing agent. The FIC is the actual IC50 of one drug in the presence of the second drug but is expressed as a fraction of its IC50 when used alone. If the isobologram graph is a straight line, it represents an additive effect of the two drugs. If the graph forms a concave curve below the line, it indicates synergy or potentiation of the combination. Below the line means synergy or potentiation and above the line means antagonism.

TM91C235 cells = experiment: In vitro reversal activity (cell growth suppression, 3H-hypoxanthine incorporation) in TM91C235 cells; type: cell-based, Plasmodium falciparum; details: for Control % sup: test compounds only
Description: For quantitative in vitro drug susceptibility testing, two well characterized P. falciparum clones, W2 and D6, were used. See Oduola et al. (1988) Exp Parasitol 66:86-95, which is herein incorporated by reference. W2 is a clone of the Indochina I isolate and is resistant to chloroquine and pyrimethamine, but susceptible to mefloquine. D6 is a clone from the Sierra I/UNC isolate and is susceptible to chloroquine and pyrimethamine, but has reduced susceptibilities to mefloquine and halofantrine. TM91C235 was isolates from Thailand and is highly resistant to mefloquine, chloroquine, and quinine.
The in vitro antimalarial drug susceptibility assay used is a modification of the procedures first published by Desjardins, et al. with modifications developed by Milhous, et al. See Desjardins, R. E., et al. (1979) Antimicrobial Agents Chemother 16:710-718; and Milhous, et al. (1985) Antimicrobial Agents Chemother 27:525-530, which are herein incorporated by reference. In brief, the assay is based on the incorporation of radiolabeled hypoxanthine by the parasites and inhibition of isotope incorporation is attributed to activity of known or candidate antimalarial drugs. For each assay, proven antimalarials, such as chloroquine, mefloquine, quinine, artemisinin, pyrimethamine and sulfadoxine, were used as controls. The incubation period was 66 hours and the starting parasitemia was 0.2% with a 1% hematocrit. The media used was RPMI-1640 culture media with no folate or p-aminobenzoic acid (PABA). Albumax may be used instead of 10% normal heat inactivated human plasma.
If a candidate compound was tested without any prior knowledge of its activity or solubility, the compound was dissolved directly in dimethylsulfoxide (DMSO) and diluted 400 fold with complete culture media. These unknown compounds were normally started at a highest concentration of about 50,000 ng/ml. The compounds were then diluted 2-fold, 11 times, to give a concentration range of about 1,048-fold. These dilutions were performed automatically by a Biomek 1000 or 2000 Liquid Handling System into 96-well microtiter plates.
as §3
Each of these test compounds were tested under three different concentrations, 5000, 500, and 50 ng/ml, in the presence of 10 ng/ml of chloroquine and 5 ng/ml of mefloquine. […] Thus, the compounds of the present invention may be used to treat, prevent or inhibit drug resistant malaria.

[2] = test compound 50 ng/ml combined with 5 ng/ml mefloquine
[3] = test compound 500 ng/ml combined with 5 ng/ml mefloquine
[4] = test compound 500 ng/ml combined with 10 ng/ml chloroquine
[5] = test compound 5000 ng/ml combined with 5 ng/ml mefloquine
[6] = test compound 5000 ng/ml combined with 10 ng/ml chloroquine

SMILES	FIC index Peruvian PC49 (Peruvian PC49)	FIC index RCS (RCS)	FIC index TM91C235 (TM91C235)	FIC (fractional inhibitory concentration) index [1]	Mefloquine % SUP (TM91C235 cells; [2]) [%]	Chloroquine % sup (TM91C235 cells; test compound 50 ng/ml combined with 10 ng/ml chloroquine) [%]	Mefloquine % SUP (TM91C235 cells; [3]) [%]	Chloroquine % sup (TM91C235 cells; [4]) [%]	Mefloquine % SUP (TM91C235 cells; [5]) [%]	Chloroquine % sup (TM91C235 cells; [6]) [%]	Control % sup (TM91C235 cells; 50 ng/ml) [%]	Control % sup (TM91C235 cells; 500 ng/ml) [%]	Control % sup (TM91C235 cells; 5000 ng/ml) [%]
CCN(CC)CCCCN1c2ccccc2Sc2ccccc21 [7b, 10-(4-Diethylaminobutyl)phenothiazine]	0.41	0.41	0.29	0.23	17	31	30	99	100	100	26	38	100
CN(C)CCCCN1c2ccccc2CCc2ccccc21 [7i, 5-(4-Dimethylaminobutyl)iminodibenzyl]	0.62	0.52	0.26	0.23	43	–	70	99	95	100	59	73	96
CCN(CC)CCCCN1c2ccccc2CCc2ccccc21 [7j, 5-(4-Diethylaminobutyl)iminodibenzyl]	0.57	0.57	0.41	0.39	64	–	95	100	100	100	62	95	100
c1ccc2c(c1)CCc1ccccc1N2CCCCCN1CCCC1 [7v, 5-(5-Pyrrolidin-1-yl-pentyl)iminodibenzyl]	0.59	0.37	0.55	0.48	–	–	–	–	–	–	–	–	–
c1ccc2c(c1)CCc1ccccc1N2CCCCCCN1CCCC1 [7x, 5-(6-Pyrrolidin-1-yl-hexyl)iminodibenzyl]	0.92	0.60	0.54	0.57	–	–	–	–	–	–	–	–	–
c1ccc2c(c1)Sc1ccccc1N2CCCCN1CCCC1 [compound 7e, 10-(4-Pyrrolidin-1-yl-butyl)phenothiazine]	0.5	0.51	0.25	0.21	33	–	67	99	95	100	38	70	96
c1ccc2c(c1)CCc1ccccc1N2CCCCN1CCCC1 [compound 7m, 5-(4-Pyrrolidin-1-yl-butyl)iminodibenzyl]	0.66	0.51	0.42	0.32	64	–	96	100	100	100	58	98	100
